Test results from PMC10111420, “Optimization of Host Cell-Compatible, Antimicrobial Peptides Effective against Biofilms and Clinical Isolates of Drug-Resistant Bacteria” (ACS Infectious Diseases, 2023).
Where a SMILES comes first, the peptide text is derived from it. [ ]: non-standard residue; d: D form.

Key:
[1] = test system: P. aeruginosa wound biofilms; assay: SEM of Tegaderm wound dressing, P. aeruginosa; format: in vivo, CD1 mice; conditions: dressing removed on Day 3, treated three times a day
Description: (§1) The Tegaderm dressing used in the murine wound model is an excellent substrate for bacterial adhesion and biofilm formation.[5],[15] […] We imaged three to four randomly selected areas of each Tegaderm sample at two magnifications each. Each image is scored for the presence/absence of bacterial cells, either rod-shaped P. aeruginosa, ∼1 μm in diameter, or spherical MRSA cocci, ∼0.9 μm in diameter. Images are also scored for biofilm-like structures defined by having multiple bacteria embedded in an obvious three-dimensional matrix. These distinctions are shown by representative images of the fixed Tegaderm dressings in Figure 9A,B. In vehicle control samples, we observed that P. aeruginosa frequently forms an open, three-dimensional matrix in which many cells are entangled in μm-long fibers. We observed that MRSA also forms a matrix in which cells are close-packed in strands that comprise a large-scale mesh. Every SEM image (68/68) from vehicle control samples of the two bacteria contained obvious visible bacteria, and most of these images contained ≥50 individual cells. In samples from peptide-treated animals, 57 of 68 (84%) of images had no visible bacteria. […] We performed a statistical analysis of observed bacteria and biofilms using the binomial equation. P-values for all comparisons of treated vs vehicle were less than 0.001. […]

[2] = test system: P. aeruginosa and MRSA wound biofilms; assay: SEM of Tegaderm wound dressing, both bacteria pooled; format: in vivo, CD1 mice; conditions: 68 images from treated animals, Day 3 Tegaderm
Description: as §1

[3] = test system: wound infections; assay: Murine wound model, once or twice per day dosing and viscous polymer formulations; format: in vivo, mice; conditions: 75 μg of peptide in 20 μL of buffer (PBS)
Description: Preliminary data had shown that once per day treatments in a simple aqueous vehicle were ineffective against wound infections in this model, see Figure S2. Three times per day is required for efficacy in simple media, Figure 8. Therefore, we also tested the effectiveness of D-CONGA-Q7 formulated in aqueous suspensions of carboxymethyl cellulose and Xanthan gum, which are anionic carbohydrate polymers that create highly viscous solutions at ∼1% w/v concentration. […] Clinically useful formulations of these peptides may be straightforward to develop.
Figure S2. Activity of D-CONGA-Q7 in wound model using 1x and 2x per day administration. Experiments were performed as described in main text, except that treatments with 75 μg of peptide in 20 μL of buffer were administered only once or twice per day. Bacterial […]
in PBS. Also, Tegaderm biofilm formation is not inhibited by peptide under these conditions.
Results for three times per day administration are shown in Figs. 8&9 of the main manuscript.
(1 picture or pasted object on this page, not shown here)
Radial diffusion results Murine wound infection
A C 6 hour incubation E 10 Once per day treatment with:
1.0 Buffer and viscous polymers D-CONGA-Q7 in 0.75% CMC
Peptide concentration (µM)
B D 24 hour incubation Once per day treatment with:
Buffer and viscous polymers 0.75% XG Vehicle only
1.0% XG D-CONGA-Q7 in 0.75% XG […]

[4] = Post-surgery mouse monitoring (weight, wound condition); conditions: monitored every day for 14 days, four mice per group, P. aeruginosa and MRSA infected mice, versus vehicle control
Description: In this model, a deep surgical punch wound, created on the dorsal surface of healthy adult CD1 mice is stabilized with a silicone ring to prevent healing by contraction, and then, covered with a Tegaderm dressing. The wound bed, with a volume of ∼20 μL, is immediately infected with 1 × 10^5 cfu of luciferase-producing P. aeruginosa or MRSA.
Female CD1 mice at 8–12 weeks of age were anesthetized via intraperitoneal injection of ketamine and xylazine at doses of 90 and 10 mg/kg, respectively. Their dorsal surface was depilated using an electric razor and scrubbed with a chlorhexidine solution. A full-thickness biopsy wound was generated using a 5 mm biopsy punch (Integra). To function as a splint for the wound, a 0.5 mm thick silicon (Invitrogen) ring with an outer diameter of 10 mm and a hole with a 5 mm diameter was placed over the wound and held to the skin with a surgical adhesive. The entire silicon ring was then covered with Tegaderm (3 M), and further adhered using 4-0 braided silk interrupted sutures (Ethicon). Mice were given 0.05 mg/kg buprenorphine immediately following surgery as well as daily for the next 2 days to alleviate pain from the procedure. […] Weight, activity, posture, coat condition, and wound condition were monitored each day throughout the duration of the experiment to ensure the well-being of each mouse. […]

Which “P. aeruginosa: Bacteria present (SEM images of Tegaderm)” value ([1]; images with bacteria / all random images) does the source give for CC(C)C[C@@H](NC(=O)[C@@H](CCC(N)=O)NC(=O)[C@@H](CCCNC(=N)N)NC(=O)[C@@H](CCCNC(=N)N)NC(=O)[C@@H](C)NC(=O)[C@@H](Cc1c[nH]c2ccccc12)NC(=O)[C@@H](CCCNC(=N)N)NC(=O)[C@H](N)CCCNC(=N)N)C(=O)N[C@H](C)C(=O)N[C@H](Cc1ccccc1)C(=O)N[C@H](C)C(=O)N[C@H](Cc1ccccc1)C(=O)N[C@H](CCCNC(=N)N)C(=O)N[C@H](CCCNC(=N)N)C(N)=O [D-CONGA-Q7] (H-[dR][dR][dW][dA][dR][dR][dQ][dL][dA][dF][dA][dF][dR][dR]-NH2; N-terminus assumed) here?
Its value is 8/33.

And the “P. aeruginosa: Biofilm present (SEM images of Tegaderm)” value ([1]; images with biofilm / all random images)?
Its value is 0/33.

What about the “Biofilm observed in SEM images” value [2] of the same compound?
The value was “no biofilm was observed”.

And the “Tegaderm biofilm formation, once or twice per day administration” value [3]?
Its value is “not inhibited”.

And the “Wound bacterial burden, once or twice per day administration” value [3]?
Its value is “not reduced significantly”.

And the “Weight loss of mice” value [4]?
Its value is “did not demonstrate any differential weight loss”.

What about the Wound condition score [4] of the same compound?
Its Wound condition score is “no significant difference”.
